This note sets out measurements from patent publication US4144242A, “Process for the purification of clavulanic acid” (Glaxo Laboratories Limited, priority 1975, dated 1979).

Series [1] can be described thus: pKa by potentiometric titration of the salt. Format: physicochemical.
A short description of series [2]: Uptake of atmospheric water (hygroscopicity). The series is classed as physicochemical. As for the experimental part:
The solid was hygroscopic. It was ground in a pestle and mortar and allowed to take up atmospheric water at 18° C. After about 22% (w/w) of water was taken up, an equilibrium was reached.

The next series concerns β-lactamase enzymes. Briefly: Inhibition of β-lactamase enzymes. The series is classed as biochemical, gram-positive and gram-negative bacteria.
For series [3], the system named is β-lactamases produced by gram-positive organisms and by gram-negative organisms in classes I-V. Nature of the series: Stability to the action of β-lactamases. Format: biochemical. The note with it: β-lactamases of S. aureus, B. cereus and gram-negative classes I-V (Richmond and Sykes).
The test system of series [4] is gram-negative and gram-positive microorganisms. Nature of the series: Antibacterial activity. Format: cell-based. The note with it: range of gram-negative and gram-positive microorganisms.
Series [5] can be described thus: Stability in aqueous solution / on storage. Format: physicochemical.
The nature of series [6]: Solubility of lithium clavulanate in aqueous lithium chloride. Format: physicochemical. The note with it: about 20° C., read-out: Solubility in mz/ml of lithium clavulanate (approximate). On the procedure: The eluate will normally contain the lithium salt, e.g. lithium chloride, at a concentration in the range 0.5 to 2.5M whereas, as indicated above, the salting out effect is most efficient at concentrations in the range 5M to 10 M. It is therefore preferred to concentrate the eluate, for example by evaporation in vacuo, e.g. by a factor of about 5. The solubility of lithium clavulanate at about 20° C. in various concentrations of aqueous lithium chloride is given in the following table: […]

Where a name gives a salt, the structure may show the parent alone. Read-outs that look alike come from different tables or passages of the source.

The pKa is the negative logarithm of the acid dissociation constant. For the molecule `O=C(O)[C@H]1/C(=C/CO)O[C@@H]2CC(=O)N21` [calcium salt], the pKa in series [1] (read-out: pKa value of the corresponding acid) was roughly 2.4.

For the molecule `O=C(O)[C@H]1/C(=C/CO)O[C@@H]2CC(=O)N21` [sodium salt, sodium clavulanate], in series [2] (crystalline solid), the hygroscopicity result was “hygroscopic”. Further, the “water taken up at equilibrium” value in series [2] (ground solid, atmospheric water at 18° C.) is recorded as “about 22 % (w/w)”.

Turning to `O=C(O)[C@H]1/C(=C/CO)O[C@@H]2CC(=O)N21` [clavulanic acid, (2R, 5R, Z)-3-(2-hydroxyethylidene)-7-oxo-4-oxa-1-azabicyclo[3,2,0]heptane-2-carboxylic acid], the “inhibition of class I β-lactamase enzymes” value in the series on β-lactamase enzymes (a number of class I enzymes (e.g. Bacteroides fragilis, Proteus vulgaris, Proteus morganii, Proteus rettgeri, Enterobacter cloacae, Citrobacter freundii, Providencia species, Hafnia alvei)) is reported as “inhibited”. Further, the “ability to inhibit β-lactamase enzymes” value with β-lactamase enzymes (enzymes of gram-positive organisms (S. aureus, B. cereus) and classes II-V from gram-negative bacteria) is reported as “possess the ability to inhibit β-lactamase enzymes”. The “stability to the action of β-lactamases” value in series [3] is on record as “stable”. Also, in series [4], the antibacterial activity entry is “have antibacterial activity”. Besides, in series [5] (after its formation), the “stability of the free acid” value was “rather unstable”. In series [5] (aqueous solution, dependence on pH), the “stability in aqueous solution” value is listed as “rather unstable in aqueous solution outside the pH range 5.5 to 8”.

`O=C(O)[C@H]1/C(=C/CO)O[C@@H]2CC(=O)N21` [lithium clavulanate]: the “pKa value of the corresponding acid” value in series [1] (listed as lithium salt) is given as “about 2.3”. The solubility in series [6] (2.5 M aqueous LiCl) stood at 23500 µg/mL; in series [6] (3.75 M aqueous LiCl), 10200 µg/mL; in series [6] (5.0 M aqueous LiCl), 4100 µg/mL; in series [6] (6.25 M aqueous LiCl), 1800 µg/mL; in series [6] (7.5 M aqueous LiCl), 800 µg/mL.
